Experimental data: PubChem BioAssay AID651870 (NMMLSC, 2012)

test system: AM2.2-beta2AR cells viability, CellTiter-Glo luminescence, 18 h; assay: cytotoxic effect in β2-adrenoceptor-expressing AM2.2 line, concentration-response curve, toxicity counterscreen for β2-adrenoceptor internalization ligand effort, cell-based, luminescent CellTiter-Glo detection, Powder Set 4 (AID 651870)

Row | SMILES | EC50
1 | CN(CC(=O)N1CCN(c2cccc(C(F)(F)F)c2)CC1)S(=O)(=O)c1ccc(F)cc1 | 31.9 µM
2 | CCCCC(=O)Nc1ccc(S(=O)(=O)N2CCCCC2c2cccnc2)cc1 (stereo not drawn) | 8.76 µM
3 | Cc1ccc(S(=O)(=O)N2CCCCC2C(=O)N2CCN(c3ccc(C(F)(F)F)cn3)CC2)cc1 (stereo not drawn) | 12.8 µM
